The source of these data is US11986471B2, “Compounds and methods of use” (Tango Therapeutics, Inc., priority 2018, dated 2024).

Assay type in all cases: biochemical
Experiment [1] concerns the target T1, PRMT5 (Homo sapiens, UniProt O14744).
T1 construct: purchased Viva (custom protein)
The experiment is described as follows: PRMT5 IC50 assay in the presence of MTA as cofactor. Conditions: for IC50: PRMT5, MTA as cofactor; for SAM/MTA Ratio: ratio between the Ki in the presence of SAM and the Ki in the presence of MTA. An excerpt:
(§1) Table 1a indicates IC50 values (μM) against PRMT5 for exemplary compounds in the presence of SAM as cofactor, with no cofactor and with MTA as cofactor, respectively (columns 3-5). […] The Ki values can be calculated from the IC50 values as described in the Examples section. As detailed in the Examples section, for the assay performed in the presence of SAM, IC50=Ki×1.5 (Ki=IC50/1.5). For the assay performed in the presence of MTA, IC50=Ki×13.5 (Ki=IC50/13.5). Column 6 indicates the ratio between the Ki of compounds in the presence of SAM and the Ki of compounds in the presence of MTA

The target in experiment [2] is T1, PRMT5. The experiment is described as follows: PRMT5 IC50 assay with no cofactor.
Source text: as §1

Experiment [3] addresses T1, PRMT5. The experiment is described as follows: PRMT5 IC50 assay in the presence of SAM as cofactor.
Source text: as §1

T1 sequence (O14744 whole entry): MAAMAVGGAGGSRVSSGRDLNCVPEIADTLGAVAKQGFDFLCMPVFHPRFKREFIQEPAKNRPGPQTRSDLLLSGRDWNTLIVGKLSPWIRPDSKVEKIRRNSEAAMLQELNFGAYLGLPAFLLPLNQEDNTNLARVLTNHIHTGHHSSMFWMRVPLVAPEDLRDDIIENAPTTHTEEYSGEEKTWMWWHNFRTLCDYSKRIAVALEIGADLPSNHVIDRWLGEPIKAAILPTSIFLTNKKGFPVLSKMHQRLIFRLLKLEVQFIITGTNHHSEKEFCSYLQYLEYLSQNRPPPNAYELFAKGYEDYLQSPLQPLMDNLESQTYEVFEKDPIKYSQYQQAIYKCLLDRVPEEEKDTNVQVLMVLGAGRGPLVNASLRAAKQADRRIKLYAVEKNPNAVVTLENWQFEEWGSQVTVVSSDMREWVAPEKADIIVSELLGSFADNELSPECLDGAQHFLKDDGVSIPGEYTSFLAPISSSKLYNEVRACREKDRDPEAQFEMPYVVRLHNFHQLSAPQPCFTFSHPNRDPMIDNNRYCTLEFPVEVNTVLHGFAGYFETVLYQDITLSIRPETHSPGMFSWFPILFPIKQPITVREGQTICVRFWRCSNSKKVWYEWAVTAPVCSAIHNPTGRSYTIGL
T1 sequence (Q9BQA1 whole entry partner): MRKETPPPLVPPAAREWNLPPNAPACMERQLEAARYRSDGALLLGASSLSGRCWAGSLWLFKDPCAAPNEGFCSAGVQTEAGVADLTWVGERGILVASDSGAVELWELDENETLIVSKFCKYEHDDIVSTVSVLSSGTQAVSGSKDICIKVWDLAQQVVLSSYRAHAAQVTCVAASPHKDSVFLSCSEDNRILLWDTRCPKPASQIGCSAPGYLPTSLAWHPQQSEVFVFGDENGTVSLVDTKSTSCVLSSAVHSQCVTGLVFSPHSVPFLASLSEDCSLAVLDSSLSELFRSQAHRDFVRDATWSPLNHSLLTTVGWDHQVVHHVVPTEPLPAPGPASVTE

Consider `Cc1ncoc1COc1ccc2c(c1C)CCN(C[C@@H](O)CNC(=O)c1cc(NC3CCC3)nc(N3CCCCC3)c1)C2` [Compound 557, 2-(cyclobutylamino)-N-[(2S)-2-hydroxy-3-{5-methyl-6-[(4-methyl-1,3-oxazol-5-yl)methoxy]-1,2,3,4-tetrahydroisoquinolin-2-yl}propyl]-6-(piperidin-1-yl)pyridine-4-carboxamide], for which the results for the IC50 in experiment [1], in experiment [2] and in experiment [3] were 50 to 500 nM, at least 5000 nM and 500 to 5000 nM, respectively. The “SAM/MTA Ratio” value in experiment [1] is “A (a Ki ratio greater than or equal to 10 fold between the Ki in the presence of SAM and the Ki in the presence of MTA)”.
As to `CC(=O)N1CCC(Nc2cccc(C(=O)NC[C@H](O)CN3CCc4cc(OCc5cnco5)ccc4C3)c2)C1` (stereo partly drawn) [Compound 558, 3-((1-acetylpyrrolidin-3-yl)amino)-N—((S)-2-hydroxy-3-(6-(oxazol-5-ylmethoxy)-3,4-dihydroisoquinolin-2(1H)-yl)propyl)benzamide], the results for the IC50 in experiment [1], in experiment [2] and in experiment [3] were 500 to 5000 nM, at least 5000 nM and 500 to 5000 nM, respectively. Moreover, in experiment [1], the “SAM/MTA Ratio” value was “A (a Ki ratio greater than or equal to 10 fold between the Ki in the presence of SAM and the Ki in the presence of MTA)”.
For the molecule `CC(=O)N1CC(Nc2cc(C(=O)NC[C@H](O)CN3CCc4cc(OCc5cnco5)ccc4C3)ncn2)C1` [Compound 562, (S)-6-((1-acetylazetidin-3-yl)amino)-N-(2-hydroxy-3-(6-(oxazol-5-ylmethoxy)-3A-dihydroisoquinolin-2(1H)-yl)propyl)pyrimidine-4-carboxamide], the IC50 is 50 to 500 nM in experiment [1], at least 5000 nM in experiment [2] and 500 to 5000 nM in experiment [3]. For the same molecule, the “SAM/MTA Ratio” value in experiment [1] was “A (a Ki ratio greater than or equal to 10 fold between the Ki in the presence of SAM and the Ki in the presence of MTA)”.
Consider `Cc1c(OCc2cnco2)ccc2c1CCN(C[C@@H](O)CNC(=O)c1cc(NC3CN(C(=O)CC(C)C)C3)ncn1)C2` [Compound 565, N-[(2S)-2-hydroxy-3-{5-methyl-6-[(1,3-oxazol-5-yl)methoxy]-1,2,3,4-tetrahydroisoquinolin-2-yl}propyl]-6-{[1-(3-methylbutanoyl)azetidin-3-yl]amino}pyrimidine-4-carboxamide], for which the values for the IC50 in experiment [1], in experiment [2] and in experiment [3] were 500 to 5000 nM, at least 5000 nM and 500 to 5000 nM, respectively. Moreover, in experiment [1], the “SAM/MTA Ratio” value was “A (a Ki ratio greater than or equal to 10 fold between the Ki in the presence of SAM and the Ki in the presence of MTA)”.
Consider `CCC(=O)N1CC(Nc2cc(C(=O)NC[C@H](O)CN3CCc4c(ccc(OCc5cnco5)c4C)C3)ncn2)C1` [Compound 567, N-[(2S)-2-hydroxy-3-{5-methyl-6-[(1,3-oxazol-5-yl)methoxy]-1,2,3,4-tetrahydroisoquinolin-2-yl}propyl]-6-[(1-propanoylazetidin-3-yl)amino]pyrimidine-4-carboxamide], for which the IC50 in experiment [1] was 50 to 500 nM; in experiment [2], at least 5000 nM; in experiment [3] it was 50 to 500 nM. The “SAM/MTA Ratio” value in experiment [1] was “A (a Ki ratio greater than or equal to 10 fold between the Ki in the presence of SAM and the Ki in the presence of MTA)”.
As for `Cc1c(OCc2cnco2)ccc2c1CCN(C[C@@H](O)CNC(=O)c1cc(NC3CCOCC3)ccn1)C2` [Compound 573, N-[(2S)-2-hydroxy-3-{5-methyl-6-[(1,3-oxazol-5-yl)methoxy]-1,2,3,4-tetrahydroisoquinolin-2-yl}propyl]-4-[(oxan-4-yl)amino]pyridine-2-carboxamide], the IC50 was 500 to 5000 nM in experiment [1], at least 5000 nM in experiment [2] and 500 to 5000 nM in experiment [3]. For the same molecule, in experiment [1], the “SAM/MTA Ratio” value is “A (a Ki ratio greater than or equal to 10 fold between the Ki in the presence of SAM and the Ki in the presence of MTA)”.
For the molecule `Cc1c(OCc2cnco2)ccc2c1CCN(C[C@@H](O)CNC(=O)c1cc(NC3CN(C(=O)C4CCC4)C3)ncn1)C2` [Compound 585, 6-[(1-cyclobutanecarbonylazetidin-3-yl)amino]-N-[(2S)-2-hydroxy-3-{5-methyl-6-[(1,3-oxazol-5-yl)methoxy]-1,2,3,4-tetrahydroisoquinolin-2-yl}propyl]pyrimidine-4-carboxamide], the IC50 in experiment [1] is 50 to 500 nM; in experiment [2], at least 5000 nM; in experiment [3], 50 to 500 nM. Besides, in experiment [1], the “SAM/MTA Ratio” value is “A (a Ki ratio greater than or equal to 10 fold between the Ki in the presence of SAM and the Ki in the presence of MTA)”.
`CO[C@H]1C[C@H](Nc2cc(C(=O)NC[C@H](O)CN3CCc4c(ccc(OCc5cnco5)c4C)C3)ccn2)C1` [Compound 591, N-[(2S)-2-hydroxy-3-{5-methyl-6-[(1,3-oxazol-5-yl)methoxy]-1,2,3,4-tetrahydroisoquinolin-2-yl}propyl]-2-{[(1r,3r)-3-methoxycyclobutyl]amino}pyridine-4-carboxamide]: the IC50 is 50 to 500 nM in experiment [1], at least 5000 nM in experiment [2] and 50 to 500 nM in experiment [3]. In experiment [1], the “SAM/MTA Ratio” value is “A (a Ki ratio greater than or equal to 10 fold between the Ki in the presence of SAM and the Ki in the presence of MTA)”.
On to `O=C(NC[C@H](O)CN1CCc2cc(OCc3cn[nH]c3)cc(F)c2C1)c1ccnc(NC2CCC2)c1` [Compound 596, 2-(cyclobutylamino)-N-[(2S)-3-[8-fluoro-6-(1H-pyrazol-4-ylmethoxy)-3,4-dihydro-1H-isoquinolin-2-yl]-2-hydroxy-propyl]pyridine-4-carboxamide], for which the 50% inhibitory concentration (IC50) in experiment [1] is 50 to 500 nM; in experiment [2], 500 to 5000 nM; in experiment [3], 500 to 5000 nM. Besides, the “SAM/MTA Ratio” value in experiment [1] is “A (a Ki ratio greater than or equal to 10 fold between the Ki in the presence of SAM and the Ki in the presence of MTA)”.
For the molecule `CC(=O)N1CC(Nc2nc(C(=O)NC[C@H](O)CN3CCc4cc(OCc5ocnc5C)ccc4C3)cc(N3CCCCC3)n2)C1` [Compound 608, (S)-2-((1-acetylazetidin-3-yl)amino)-N-(2-hydroxy-3-(6-((4-methyloxazol-5-yl)methoxy)-3,4-dihydroisoquinolin-2(1H)-yl)propyl)-6-(piperidin-1-yl)pyrimidine-4-carboxamide], the results for the IC50 in experiment [1], in experiment [2] and in experiment [3] were 50 to 500 nM, at least 5000 nM and 500 to 5000 nM, respectively. In addition, in experiment [1], the “SAM/MTA Ratio” value is “A (a Ki ratio greater than or equal to 10 fold between the Ki in the presence of SAM and the Ki in the presence of MTA)”.
Take `Cc1ncoc1COc1ccc2c(c1)CCN(C[C@@H](O)CNC(=O)c1cc(NC3CCN(C)C(=O)C3)ncn1)C2` (stereo partly drawn) [Compound 613, N-[(2S)-2-hydroxy-3-{6-[(4-methyl-1,3-oxazol-5-yl)methoxy]-1,2,3,4-tetrahydroisoquinolin-2-yl}propyl]-6-[(1-methyl-2-oxopiperidin-4-yl)amino]pyrimidine-4-carboxamide]: the IC50 was 50 to 500 nM in experiment [1], at least 5000 nM in experiment [2] and 50 to 500 nM in experiment [3].
Regarding `CC(=O)N1C[C@@H]2[C@H](C1)[C@H]2Nc1cc(C(=O)NC[C@H](O)CN2CCc3cc(OCc4ocnc4C)ccc3C2)ncn1` [Compound 620, 6-{[(1R,5S,6R)-3-acetyl-3-azabicyclo[3.1.0]hexan-6-yl]amino}-N-[(2S)-2-hydroxy-3-[6-[(4-methyl-1,3-oxazol-5-yl)methoxy]-1,2,3,4-tetrahydroisoquinolin-2-yl]propyl]pyrimidine-4-carboxamide], the IC50 in experiment [1] was 500 to 5000 nM; in experiment [2], at least 5000 nM; in experiment [3], 500 to 5000 nM. In addition, the “SAM/MTA Ratio” value in experiment [1] is “A (a Ki ratio greater than or equal to 10 fold between the Ki in the presence of SAM and the Ki in the presence of MTA)”.

As usually defined, the IC50 is the midpoint of a concentration-inhibition curve.
